Results on one molecule are retold here after US20050054620A1, “Paricalcitol as a chemotherapeutic agent” (priority 2003, published 2005).

One series deals with HL-60 cells. The series can be described thus: Cell cycle analysis by flow cytometry. The class given is cell-based, human. Particulars: 10^−7M, 72 hr. The method, then:
For cell cycle analysis, cells were exposed to 10^−7M 1,25(OH)2D3, 10^−7M paricalcitol or vehicle control for either 3 or 4 days. Total cells, both in suspension and adherent, were collected, washed, suspended in cold PBS. Then cells were fixed in 75% chilled methanol and stained with propidium iodine. Cell cycle status was analyzed on a Becton Dickinson Flow Cytometer.
Cell cycle analysis was performed as follows: after treatment of 5×10^4 of cells with a selected compound, cells were collected, washed and suspended in cold PBS. Cells were fixed in chilled 75% methanol and stained with propidium iodine. Cell cycle status was analyzed on a Becton Dickinson Flow Cytometer used standart protocols.
In general terms: In flow cytometry, cells or beads pass a laser one at a time.

Series [1] relates to HCT116 colon cancer cells. The series can be described thus: MTT assay. The series is classed as cell-based, human. To be noted: 10^−7M, 96 hrs. The method, then: (§1) HT-29, SW837, SW480 and HCT116 colon cancer cells were treated for 96 hrs with either paricalcitol (10^−7M) 1,25(OH)2D3 (10^−7M) or diluant (control). Growth (% of control) was measured by MTT assay. Results represent the mean±SD of three independent experiments with triplicate dishes. […] were incubated in culture medium for 96 hr in 96 well-plates and […] of MTT solution was added.

Another series deals with HT-29 colon cancer cells. The series can be described thus: MTT assay. The series is classed as cell-based, human. To be noted: 10^−7M, 96 hrs. The procedure: as §1
On the technique in general: Tetrazolium dyes change colour on reduction, which living cells bring about.

In another series the test system is SW480 colon cancer cells. Kind of series: MTT assay. To be noted: 10^−7M, 96 hrs. The class given is cell-based, human. The method, then: as §1
In a further series the test system is SW837 colon cancer cells. The series can be described thus: MTT assay. The class given is cell-based, human. To be noted: 10^−7M, 96 hrs. The procedure:
as §1

A further series concerns SW837 cells. The series can be described thus: Western blot of cell lysates. Particulars: 10^−7M, 72 hrs. The class given is cell-based, human. The method, then:
Western blot analysis was used to determine the levels of proteins involved in cell cycle and differentiation. […] After centrifugation at 15,000×g for 15 min at 4° C., the suspension was collected. Protein concentrations were quantitated using the Bio-Rad assay (Bio-Rad Labolatories, Hercules, Calif.). […] The blots were developed using the Supersignal West Pico Chemiluminescent Substrate Kit (Pierce, Rockford, Ill.). In FIG. 4C, HT-29 and SW837 cells were cultured with either paricalcitol (10^−7M) or 1,25(OH)2D3 (10^−7M) for 72 hrs. Cell lysates were prepared and analyzed by Western blot which was probed sequentially with antibodies to COX-1 and COX-2 (Santa Cruz Biotechnology). Control cells were treated with vehicle alone. The amount of protein was normalized by comparison to the quantity of GAPDH.
(In western blotting, separated proteins are transferred to a membrane and probed.)

The test system of series [2] is 24-hydroxylase mRNA. The series can be described thus: RT-PCR of 24-hydroxylase mRNA in HT-29 cells. To be noted: 10^−7M. The series is classed as cell-based, human.
Protocol: In FIG. 6B, HT-29 colon cancer cells were treated with paricalcitol (10^−7M) for 0, 6, 12 or 24 hrs and RNA was harvested. Expression of 24 hydroxylase mRNA was analysed by RT-PCR. The amounts of mRNA were normalized by comparison to 18S RNA. […] For the PCR analysis, RNA extraction and reverse transcription were done by TRIzole (Invitrogen, Carlsbad, Calif.) and reverse transcriptase (Promega, Madison, Wis.). A twenty-microliter volume of cDNA was prepared from 1 μg of RNA. cDNAs were amplified by PCR with specific primers for 24-hydroxylase and 18S. The cycle number was 25 for 18S and 32 for 24-hydroxylase. PCR product was separated on a 2% agarose gel, stained with ethidium bromide, and photographed.
For series [3], the system named is 24-hydroxylase mRNA. The series can be described thus: RT-PCR of 24-hydroxylase mRNA, spleen mononuclear cells of VDR knock-out mice. Particulars: cells from VDR−/− mice; 10^−8 M. The series is classed as cell-based.
Protocol: Expression of 24 hydroxylase mRNA was analysed by RT-PCR. The amounts of mRNA were normalized by comparison to 18S RNA. For the PCR analysis, RNA extraction and reverse transcription were done by TRIzole (Invitrogen, Carlsbad, Calif.) and reverse transcriptase (Promega, Madison, Wis.). A twenty-microliter volume of cDNA was prepared from 1 μg of RNA. cDNAs were amplified by PCR with specific primers for 24-hydroxylase and 18S. The cycle number was 25 for 18S and 32 for 24-hydroxylase. PCR product was separated on a 2% agarose gel, stained with ethidium bromide, and photographed.
In series [4] the test system is mononuclear bone marrow cells from wild type (WT) mice. The series can be described thus: Colony-forming assay in methylcellulose, wild type mice. The series is classed as cell-based. To be noted: 10^−8 M. The source says: (§2) In FIG. 6D, colony formation by mononuclear bone marrow cells from VDR knock-out (VDR-KO) and wild type (WT) mice is shown. Mononuclear cells were obtained from femoral bone marrow plugs and grown in methylcellulose culture media with either paricalcitol (10^−8M) or diluant. Colonies were counted on day 10 of culture. The number of total colonies (average) were 87 (control) and 66 (paricalcitol 10^−8M) in wild type mice, and 110 (control) and 122 (paricalcitol 10^−8M) in VDR-KO mice. The percentage of macrophage, granulocyte and mixed granulocyte/macrophage colonies are shown. Triplicate wells for each mouse and a total of three KO and three WT mice were studied. G, granulocyte colonies; G/M mixed granulocyte/macrophage colonies; M, macrophage colonies.
(§3) The VDR KO Mouse and Colony-Forming Assay was performed as follows. VDR KO mice were generated and genotypes were determined by Southern Blot Analysis as described previously (O'Kelly et al., supra, 2002). For experiments using VDR KO mice, their wild-type (WT) littermates were used as controls. Mice were killed by cervical neck dislocation. Bone marrow was flushed out of isolated femurs with (a-MEM; Gibco BRL, Grand Island, N.Y., USA) including 10% FCS using a 26-gauge needle. Isolated spleens were injected with DMEM (Gibco BRL) plus 10% FCS and crushed with forceps to release cells. Mononuclear cells from bone marrow or spleen were separated by Ficoll-Hypaque density centrifugation (Amersham Pharmacia, Uppsala, Sweden). Resuspended mononuclear bone marrow cells (2×10^4 cells/ml) and growth factors were added 1:10 to methylcellulose medium M3234 (StemCell Technologies Inc., Vancouver, British Columbia, Canada) to yield a final concentration of 1% methylcellulose, 30% FCS, 1% BSA, 10^-4M mercaptoethanol, and 2 mM L-glutamine as described previously (19). Cells were plated in six-well plates in a volume of 1 ml and incubated at 37° C. in a humidified atmosphere containing 5% CO2. Colonies were counted after 2 weeks. Colony type was established by morphology; and to ensure accurate determination, representative colonies were plucked from the plates, centrifuged onto slides, stained with Wright-Giemsa stain and examined by light microscopy.

Series [5] concerns mononuclear bone marrow cells from VDR knock-out (VDR-KO) mice. Kind of series: Colony-forming assay in methylcellulose, VDR knock-out mice. To be noted: 10^−8 M. The series is classed as cell-based.
Excerpt: as §2, §3

For a further series, the system named is NCI-H929 myeloma cells. Particulars: 4 days exposure.
The conditions of series [6]: humans, cited from earlier work.
For series [7] the following is noted: humans, cited from earlier work. The source holds these as a separate data set.

The structures appear in SMILES notation.

Regarding `C[C@H](/C=C/[C@H](C)C(C)(C)O)[C@H]1CC[C@H]2/C(=C/C=C3C[C@@H](O)C[C@H](O)C3)CCC[C@]12C` [paricalcitol, 19-nor-1,25, (OH)2D3], the “decrease of cells in S phase” value with HL-60 cells is reported as 33%. In addition, the “increase of cells in G0/G1 phase” value in the series with HL-60 cells is recorded as 16%. In addition, in the series on HL-60 cells, the “increase of cells in G2/M phase” value is on record as 17%. Further, the “growth by MTT assay” value in [1] is recorded as “either only slightly sensitive or resistant”; in the series on HT-29 colon cancer cells, “sensitive”; in the series on SW480 colon cancer cells, “either only slightly sensitive or resistant”; in the series with SW837 colon cancer cells it was “sensitive”. In the series on SW837 cells, the “decrease of COX-2 expression” value was determined as 40%. In addition, the “effect on COX-1 expression” value with SW837 cells is listed as “without affecting”. For the same molecule, the “time of exposure within which 24-hydroxylase mRNA expression was induced” value in the series with 24-hydroxylase mRNA [2] was not above 6 h. Moreover, the “induction of 24-hydroxylase” value in the series on 24-hydroxylase mRNA [3] is reported as “not inducible”. In addition, the “percentage of granulocyte colonies” value is reported as 6±3% in series [4] (control 23±4%) and 13±4% in series [5] (VDR knock-out mice, control 13±3%). Besides, the “percentage of macrophage colonies” value was found to be 69±2% in series [4] (control 32±4%) and 25±5% in [5] (VDR knock-out mice, control 30±8%). Besides, the “percentage of mixed colonies” value in series [4] (control 43±7%) amounted to 25±5%; in series [5] (VDR knock-out mice, control 56±10%), 61±8%. The “number of total colonies (average)” value was 66 in series [4] (control 87) and 122 in [5] (VDR knock out mice, control 110). The “antiproliferative effect by MTT assay” value in the series with NCI-H929 myeloma cells is “sensitive”. The peak serum levels in series [6] is 1850 pg/mL. For the same molecule, the serum half-life entry in series [6] (paricalcitol compared with 1,25(OH)2D3) is “similar”. Besides, the dose safely given entry in series [7] was “up to 16.8 mg”. Besides, in series [7] (compared with 1,25(OH)2D3), the hypercalcemia result is “less likely to cause hypercalcemia”.
